# Test results from patent publication US12383545B1, “Treatment of migraine” (priority 2018, dated 2025).
# Test system: participants with episodic migraine
# Test: Study A: Migraine-Specific Quality of Life Questionnaire (MSQ v2.1) domain scores
# Format: in vivo, human
# Design: key to MSQ v2.1 Role Function Restrictive domain score, Week 12, mean (SD) / MSQ v2.1 Role Function Restrictive domain score, change from baseline, mean (SD) / MSQ v2.1 Role Function Restrictive domain score, MMRM LS mean change (SE): 0–100 scale, higher = better quality of life
# Settings: for MSQ v2.1 Role Function Restrictive domain score, Week 12, mean (SD): mITT; for MSQ v2.1 Role Function Restrictive domain score, MMRM LS mean change (SE) / MSQ v2.1 Role Function Restrictive domain score, change from baseline, mean (SD): week 12, mITT; for MSQ v2.1 EF domain, improvement vs placebo / MSQ v2.1 RFP domain, improvement vs placebo: week 12
# From the text: The Migraine-Specific Quality of Life Questionnaire Version 2.1 is one of the most frequently utilized disease-specific tools assessing the impact of migraine on HRQL. The MSQ is a validated tool that assess the impact of migraine on function (i.e., daily social and work-related activities) over the past 4 weeks across three dimensions: Role Function-Restrictive (RR, or “RFR”, relating to how migraines limit the patient's daily social and work related activities), Role Function-Preventive (RP, e.g., how migraines prevent the patient's daily social and work related activities), and Emotional Function (EF, e.g., the emotions associated with a patient's migraines). Patients respond to items using a 6-point scale: “none of the time,” “a little bit of the time,” “some of the time”, “a good bit of the time,” “most of the time” and “all of the time,” which are assigned scores of 1 to 6, respectively. Raw dimension scores are computed as a sum of item responses and rescaled from a 0 to 100 scale such that higher scores indicate better quality of life. See Bagley et al., Validating Migraine-Specific Quality of Life Questionnaire v2.1 in Episodic and Chronic Migraine, Headache, 2012 March; 52 (3): 409-21.
# The primary efficacy endpoint was change from baseline in mean monthly migraine days across the 12-week treatment period. Secondary efficacy endpoints, tested in hierarchical order, were change from baseline in mean monthly headache days across the 12-week treatment period, change from baseline in mean monthly acute medication use days across the 12 week treatment period, ≥50% reduction in 3-month average of monthly migraine days, change from baseline in MSQ v 2.1 Role Function-Restrictive domain score at week 12, change from baseline in mean monthly Performance of Daily Activities domain score of the AIM-D across the 12-week treatment period, and change from baseline in mean monthly Physical Impairment domain score of the AIM-D across the 12-week treatment period. An exploratory analysis of the time course of efficacy for atogepant by 4-week intervals, based on the least square mean change from baseline for the number of monthly migraine days over the 12-week treatment period was also conducted.
# A secondary endpoint measured the change from baseline in MSQ v2.1 Role Function Restrictive Domain Score at Week 12. The Migraine-Specific Quality of Life Questionnaire Version 2.1 is one of the most frequently utilized disease-specific tools assessing the impact of migraine on HRQL. The MSQ measures the impact of migraine on the patient's HRQL over the past 4 weeks across three dimensions: Role Function-Restrictive (RR), Role Function-Preventive (RP), and Emotional Function (EF).
smiles,measurement,setting,value
C[C@@H]1[C@H](c2c(F)ccc(F)c2F)C[C@H](NC(=O)c2cnc3c(c2)C[C@@]2(C3)C(=O)Nc3ncccc32)C(=O)N1CC(F)(F)F [atogepant],"MSQ v2.1 RFR domain score, LSMD vs. placebo (95% CI)","10 mg QD (symbol *), week 4, FIG. 11",8.6
same,"MSQ v2.1 RFR domain score, LSMD vs. placebo (95% CI)","10 mg QD (symbol *), week 8, FIG. 11",11.3
same,"MSQ v2.1 RFR domain score, LSMD vs. placebo (95% CI)","10 mg QD, Week 12",9.9
same,"MSQ v2.1 Role Function Restrictive domain score, Week 12, mean (SD)",10 mg QD,75.6
same,"MSQ v2.1 RFR domain score, LSMD vs. placebo (95% CI)","10 mg QD, week 12, listed as Atogepant",9.90
same,"MSQ v2.1 Role Function Restrictive domain score, MMRM LS mean change (SE)",10 mg QD,30.35
same,"MSQ v2.1 Role Function Restrictive domain score, change from baseline, mean (SD)",10 mg QD,30.8
same,"MSQ v2.1 EF domain, improvement vs placebo",10 mg,8.3
same,"MSQ v2.1 RFP domain, improvement vs placebo",10 mg,5.8
same,"MSQ v2.1 RFR domain score, LSMD vs. placebo (95% CI)","30 mg QD (symbol †), week 4, FIG. 11",11.2
same,"MSQ v2.1 RFR domain score, LSMD vs. placebo (95% CI)","30 mg QD (symbol †), week 8, FIG. 11",9.9
same,"MSQ v2.1 RFR domain score, LSMD vs. placebo (95% CI)","30 mg QD, Week 12",10.1
same,"MSQ v2.1 Role Function Restrictive domain score, Week 12, mean (SD)",30 mg QD,75.4
same,"MSQ v2.1 RFR domain score, LSMD vs. placebo (95% CI)","30 mg QD, week 12, listed as Atogepant",10.08
same,"MSQ v2.1 Role Function Restrictive domain score, MMRM LS mean change (SE)",30 mg QD,30.53
same,"MSQ v2.1 Role Function Restrictive domain score, change from baseline, mean (SD)",30 mg QD,31.1
same,"MSQ v2.1 EF domain, improvement vs placebo",30 mg,9.7
same,"MSQ v2.1 RFP domain, improvement vs placebo",30 mg,6.9
same,"MSQ v2.1 RFR domain score, LSMD vs. placebo (95% CI)","60 mg QD (symbol ‡), week 4, FIG. 11",12.3
same,"MSQ v2.1 RFR domain score, LSMD vs. placebo (95% CI)","60 mg QD (symbol ‡), week 8, FIG. 11",10.8
same,"MSQ v2.1 RFR domain score, LSMD vs. placebo (95% CI)","60 mg QD, Week 12",10.8
same,"MSQ v2.1 Role Function Restrictive domain score, Week 12, mean (SD)",60 mg QD,78.0
same,"MSQ v2.1 RFR domain score, LSMD vs. placebo (95% CI)","60 mg QD, week 12, listed as Atogepant",10.80
same,"MSQ v2.1 Role Function Restrictive domain score, MMRM LS mean change (SE)",60 mg QD,31.25
same,"MSQ v2.1 Role Function Restrictive domain score, change from baseline, mean (SD)",60 mg QD,30.5
same,"MSQ v2.1 EF domain, improvement vs placebo",60 mg,10.5
same,"MSQ v2.1 RFP domain, improvement vs placebo",60 mg,7.1
